# Assay results as given in ChEMBL document CHEMBL3885861, “Open TG-GATES”.
# Species on record: Rattus norvegicus
# Test: Open TG-GATES - Regimen: Single
# Assay type: toxicity, organism-based, Sprague-Dawley
# Design: regimen Single, gender Male, age 6 weeks
# Details: in vivo, po, 10 mg/kg, route gavage, dose level Low; for APTT / Bas / Eos / Fbg / Hb / Ht / Lym / MCH / MCHC / MCV / Mono / Neu / PT / Plat / RBC / Ret / WBC: tissue Blood; for KIDNEY_L / KIDNEY_R / KIDNEY_TOTAL: tissue Kidney; for LIVER: tissue Liver; for A/G / ALP / ALT / AST / BUN / CRE / Ca / Cl / DBIL / GLC / IP / K / LDH / Na / PL / RALB / TBIL / TC / TG / TP / gamma-GTP: tissue Plasma
smiles,measurement,setting,value
OCCOCCN1CCN(C(c2ccccc2)c2ccc(Cl)cc2)CC1 (configuration not stated) [HYDROXYZINE],TERMINAL_BW,3 h,192.7 g
same,APTT,3 h,15.4 s
same,Bas,3 h,0.4%
same,Eos,3 h,0.6%
same,Fbg,3 h,276.8 mg/dL
same,Hb,3 h,12.7 g/dL
same,Ht,3 h,39.3%
same,Lym,3 h,80.6%
same,MCH,3 h,21.7 pg
same,MCHC,3 h,32.3%
same,MCV,3 h,67 fL
same,Mono,3 h,2.6%
same,Neu,3 h,15.2%
same,PT,3 h,15.1 s
same,Plat,3 h,113 x10_4/uL
same,RBC,3 h,587.8 x10_4/ul
same,Ret,3 h,9.1%
same,WBC,3 h,89.2 x10_2/uL
same,KIDNEY_L,3 h,0.8 g
same,KIDNEY_R,3 h,0.9 g
same,KIDNEY_TOTAL,3 h,1.7 g
same,LIVER,3 h,9 g
same,A/G,3 h,0.8
same,ALP,3 h,1362.6 IU/L
same,ALT,3 h,43.4 IU/L
same,AST,3 h,75.6 IU/L
same,BUN,3 h,11.2 mg/dL
same,CRE,3 h,0.2 mg/dL
same,Ca,3 h,11.1 mg/dL
same,Cl,3 h,105.2 meq/L
same,DBIL,3 h,0.016 mg/dL
same,GLC,3 h,176.6 mg/dL
same,IP,3 h,9.4 mg/dL
same,K,3 h,4.4 meq/L
same,LDH,3 h,80.4 IU/L
same,Na,3 h,141.6 meq/L
same,PL,3 h,137.2 mg/dL
same,RALB,3 h,2.4 g/dL
same,TBIL,3 h,0.064 mg/dL
same,TC,3 h,74.6 mg/dL
same,TG,3 h,46.2 mg/dL
same,TP,3 h,5.3 g/dL
same,gamma-GTP,3 h,1 IU/L
same,TERMINAL_BW,6 h,193.5 g
same,APTT,6 h,15.7 s
same,Bas,6 h,0%
same,Eos,6 h,0.8%
same,Fbg,6 h,285.2 mg/dL
same,Hb,6 h,12.8 g/dL
same,Ht,6 h,40.3%
same,Lym,6 h,75.8%
same,MCH,6 h,21.3 pg
same,MCHC,6 h,31.8%
same,MCV,6 h,67.1 fL
same,Mono,6 h,2.6%
same,Neu,6 h,20.2%
same,PT,6 h,15.2 s
same,Plat,6 h,114.7 x10_4/uL
same,RBC,6 h,601.2 x10_4/ul
same,Ret,6 h,9.2%
same,WBC,6 h,77.4 x10_2/uL
same,KIDNEY_L,6 h,0.9 g
same,KIDNEY_R,6 h,0.9 g
same,KIDNEY_TOTAL,6 h,1.7 g
same,LIVER,6 h,8.1 g
same,A/G,6 h,0.9
same,ALP,6 h,1554.6 IU/L
same,ALT,6 h,46.8 IU/L
same,AST,6 h,83.2 IU/L
same,BUN,6 h,9 mg/dL
same,CRE,6 h,0.2 mg/dL
same,Ca,6 h,10.9 mg/dL
same,Cl,6 h,106.2 meq/L
same,DBIL,6 h,0.006 mg/dL
same,GLC,6 h,175.2 mg/dL
same,IP,6 h,10.1 mg/dL
same,K,6 h,4.3 meq/L
same,LDH,6 h,80.2 IU/L
same,Na,6 h,142.8 meq/L
same,PL,6 h,139.4 mg/dL
same,RALB,6 h,2.5 g/dL
same,TBIL,6 h,0.062 mg/dL
same,TC,6 h,78.8 mg/dL
same,TG,6 h,32.4 mg/dL
same,TP,6 h,5.3 g/dL
same,gamma-GTP,6 h,0.8 IU/L
same,TERMINAL_BW,9 h,190.5 g
same,APTT,9 h,16.2 s
same,Bas,9 h,0%
same,Eos,9 h,0.4%
same,Fbg,9 h,288.8 mg/dL
same,Hb,9 h,12.8 g/dL
same,Ht,9 h,39.6%
same,Lym,9 h,71.2%
same,MCH,9 h,21.3 pg
same,MCHC,9 h,32.3%
same,MCV,9 h,65.7 fL
same,Mono,9 h,3%
same,Neu,9 h,24%
same,PT,9 h,15.2 s
same,Plat,9 h,118.3 x10_4/uL
same,RBC,9 h,601.8 x10_4/ul
same,Ret,9 h,8.2%
same,WBC,9 h,63.8 x10_2/uL
same,KIDNEY_L,9 h,0.9 g
same,KIDNEY_R,9 h,0.8 g
same,KIDNEY_TOTAL,9 h,1.7 g
same,LIVER,9 h,7.9 g
same,A/G,9 h,0.8
same,ALP,9 h,1271.4 IU/L
same,ALT,9 h,37.4 IU/L
same,AST,9 h,70.2 IU/L
same,BUN,9 h,9.2 mg/dL
same,CRE,9 h,0.2 mg/dL
same,Ca,9 h,10.7 mg/dL
same,Cl,9 h,106.8 meq/L
same,DBIL,9 h,0.012 mg/dL
same,GLC,9 h,184.6 mg/dL
same,IP,9 h,10.2 mg/dL
same,K,9 h,4.1 meq/L
same,LDH,9 h,78.8 IU/L
same,Na,9 h,142.4 meq/L
same,PL,9 h,139.4 mg/dL
same,RALB,9 h,2.5 g/dL
same,TBIL,9 h,0.062 mg/dL
same,TC,9 h,81.4 mg/dL
same,TG,9 h,29.4 mg/dL
same,TP,9 h,5.5 g/dL
same,gamma-GTP,9 h,1 IU/L
same,TERMINAL_BW,24 h,210.3 g
same,APTT,24 h,15 s
same,Bas,24 h,0%
same,Eos,24 h,1%
same,Fbg,24 h,276.8 mg/dL
same,Hb,24 h,12.7 g/dL
same,Ht,24 h,39.6%
same,Lym,24 h,73.4%
same,MCH,24 h,21.9 pg
same,MCHC,24 h,32%
same,MCV,24 h,68.5 fL
same,Mono,24 h,2.8%
same,Neu,24 h,22.6%
same,PT,24 h,16 s
same,Plat,24 h,121.3 x10_4/uL
same,RBC,24 h,578.6 x10_4/ul
same,Ret,24 h,8.8%
same,WBC,24 h,79 x10_2/uL
same,KIDNEY_L,24 h,0.9 g
same,KIDNEY_R,24 h,0.9 g
same,KIDNEY_TOTAL,24 h,1.8 g
same,LIVER,24 h,10.1 g
same,A/G,24 h,0.9
same,ALP,24 h,1714.2 IU/L
same,ALT,24 h,45.2 IU/L
same,AST,24 h,71.4 IU/L
same,BUN,24 h,14.2 mg/dL
same,CRE,24 h,0.2 mg/dL
same,Ca,24 h,11.4 mg/dL
same,Cl,24 h,106 meq/L
same,DBIL,24 h,0.02 mg/dL
same,GLC,24 h,177.6 mg/dL
same,IP,24 h,8.2 mg/dL
same,K,24 h,4.3 meq/L
same,LDH,24 h,104.2 IU/L
same,Na,24 h,142.8 meq/L
same,PL,24 h,147.4 mg/dL
same,RALB,24 h,2.6 g/dL
same,TBIL,24 h,0.058 mg/dL
same,TC,24 h,77.2 mg/dL
same,TG,24 h,69.4 mg/dL
same,TP,24 h,5.6 g/dL
same,gamma-GTP,24 h,1 IU/L
